Measurements as given in patent US20230348376A1 (TEIJIN PHARMA LIMITED, priority 2020, published 2023).
Where two headings read alike, the source gives them in different places.

Key:
[1] = system: rat oligodendrocyte progenitor cells; assay: Promotive activity of rat oligodendrocyte progenitor cell differentiation-2 (immunostaining of MBP); assay type: cell-based; conditions: vitamin D derivative 2 μM, T3 30 nM, 4 days
In short: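 Vitamin D derivatives scored as symbols for promoting differentiation, read out by MBP immunostaining. OPCs taken from supernatant after about 22 h shaking (37 °C, 200 rpm) in separation medium.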

[2] = Evaluation of brain penetration in mice (blood and brain concentration at brain Cmax); assay type: in vivo, mouse; conditions: C57BL/6J mice; for Concentration in blood (mean ± SD) at brain Cmax / Concentration in brain (mean ± SD) at brain Cmax / Concentration in blood at brain Cmax / Concentration in brain at brain Cmax: n=3; for Kp: male, C57BL/6J, mouse, brain/plasma, po
In short: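 Male C57BL/6J mice (8 weeks, n=3) dosed orally once at 1 […] mg/kg; plasma and brain collected at 0.25, 0.5, 1, 2, 4 and 8 h. Compound extracted with acetonitrile from brain homogenate and plasma, quantified by LC/MS/MS.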

[3] = system: mouse cuprizone model; assay: Myelin regeneration promoting action in mouse cuprizone model (LFB staining of corpus callosum); assay type: in vivo; conditions: 4 weeks after 6 weeks cuprizone diet, untreated = 100%
Description: C57BL/6J mice (8 weeks old, male) were fed a diet containing 0.3% cuprizone (bis(cyclohexanone)oxaldihydrazone) (Research Diets, Inc. #D17042709) for 6 weeks to induce demyelination. Subsequently, the mice were divided into groups of 8 mice based on the body weight, the diet was switched to a cuprizone-free diet (Research Diets, Inc. #D10001), and administration of the test compound or vehicle was started. […] After administration of 4 weeks, the mice were euthanized, perfused with a 4% paraformaldehyde solution, and then brain sampling was performed. The brain sample obtained was embedded in paraffin to prepare a coronal section specimen at Bregma+1. The specimen was stained with Luxor Fast Blue (LFB) to visualize the myelin sheath, and images were acquired using a fluorescence microscope (KEYENCE #BZ-X710). The corpus callosum area and the LFB staining positive area in the corpus callosum of the obtained pathological specimen image were measured using an image analysis application (KEYENCE #BZ-H3C/BZ-H3XD), and the ratio (LFB staining positive area in the corpus callosum/corpus callosum area) was calculated. The intact group is a non-pathogenic group, and the […] control group were sampled after feeding the diet containing 0.3% cuprizone for 6 weeks.
In the table, the ratio of LFB staining positive area in the corpus callosum/corpus callosum area of the untreated group, fed with the cuprizone-free diet for 6 weeks, was regarded as 100%. As a result, the control group, fed with the cuprizone-containing diet for 6 weeks, decreased the ratio to 23.6%, and was confirmed to progress demyelination. The group, in which the cuprizone-containing diet was fed for 6 weeks and switched to the cuprizone-free diet, and the vehicle was administered, improved the ratio of area of LFB staining positive/area of corpus callosum to 50.1%. […] In addition, GSK239512 described in WO2013/107336 pamphlet was evaluated in the test to show the ratio of LFB staining positive area/corpus callosum area of 45.8%, in which no demyelination regeneration promoting action was shown as compared with the vehicle-administered group.

[4] = target: T1, human VDR (Homo sapiens, UniProt P11473); assay: Evaluation of VDR transcription activity in human osteoblasts (HOS cells), luciferase reporter; conditions: Activity (EC50, VDR transcription activity), HOS cells transfected with human VDR, human RXRα and DR3 luciferase reporter; 21 hours
T1 sequence (P11473 1-427): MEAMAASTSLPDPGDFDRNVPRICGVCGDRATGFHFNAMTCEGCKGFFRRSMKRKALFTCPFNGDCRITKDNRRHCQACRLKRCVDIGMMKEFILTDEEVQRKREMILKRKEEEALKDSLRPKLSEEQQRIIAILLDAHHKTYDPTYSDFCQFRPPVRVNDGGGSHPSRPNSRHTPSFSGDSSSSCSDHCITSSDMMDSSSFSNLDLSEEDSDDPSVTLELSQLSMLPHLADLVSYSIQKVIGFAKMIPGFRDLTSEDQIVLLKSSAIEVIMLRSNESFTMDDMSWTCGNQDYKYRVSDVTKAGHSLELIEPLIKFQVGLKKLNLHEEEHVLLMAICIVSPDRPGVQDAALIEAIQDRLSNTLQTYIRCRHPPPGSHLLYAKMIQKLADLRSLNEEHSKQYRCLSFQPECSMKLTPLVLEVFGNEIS
T1 sequence (P19793 1-462 partner): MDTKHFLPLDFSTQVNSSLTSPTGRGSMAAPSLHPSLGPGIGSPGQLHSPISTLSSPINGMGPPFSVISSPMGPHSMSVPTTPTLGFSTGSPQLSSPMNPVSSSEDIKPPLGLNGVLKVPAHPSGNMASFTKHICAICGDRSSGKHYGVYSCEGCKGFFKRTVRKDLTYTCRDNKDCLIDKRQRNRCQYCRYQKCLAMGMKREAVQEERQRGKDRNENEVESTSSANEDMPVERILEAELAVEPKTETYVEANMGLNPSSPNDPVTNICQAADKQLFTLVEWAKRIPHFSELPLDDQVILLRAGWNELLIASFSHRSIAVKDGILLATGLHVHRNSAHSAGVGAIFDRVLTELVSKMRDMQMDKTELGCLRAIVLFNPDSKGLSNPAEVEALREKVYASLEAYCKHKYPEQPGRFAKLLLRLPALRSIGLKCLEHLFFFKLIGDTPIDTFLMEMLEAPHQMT

[5] = system: rat oligodendrocyte progenitor cells; assay: Promotive activity of rat oligodendrocyte progenitor cell differentiation-1 (MBP gene expression, mRNA); assay type: cell-based; conditions: 4 days; for activation at 1 µM: Rattus norvegicus, Oligodendrocyte progenitor cell, 96 h, read-out: promotive activity at T3 base (MBP gene expression; DMSO 0%, T3 100%), MBP/β actin mRNA
In short: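 Primary OPCs from 1-day-old SD rat forebrain, isolated by shaking off mixed glial cultures and seeded at 2×10^3 cells/well in B27/CNTF (10 ng/mL) differentiation medium with compound. MBP mRNA measured by one-step TaqMan real-time PCR and expressed as MBP/β-actin ratio.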

[6] = system: mouse neural stem cells (NSCs); assay: Promoting activity in oligodendrocyte differentiation of mouse neural stem cell (GalC immunostaining); assay type: cell-based; conditions: day 10, N=5
Experimental: To NSC basal medium (100 mL) included in this product, B27 (1 mL), Penicillin-Streptomycin (1 mL), Glutamine (1 mL), bFGF (20 μL), EGF (10 μL), and Heparin (100 μL) were added to prepare the growth medium. Mouse neural stem cells were reconstituted in a T-25 flask using the growth medium and proliferated as a neurosphere by suspension culture. The cells were expanded by passaging at a split ratio=1:2 in a CO2 incubator (5% CO2, 37° C., wet) to obtain the required number of cells. ACCUTASE (Innovative Cell Technologies, Cat. No. AT104) was used as the passage reagent.
The differentiation medium containing test substance was prepared to a target final concentration by diluting a solution of 20 mM compound in DMSO to 10-fold with DMSO and then to 2×10^5-fold with the differentiation medium. Additive-free differentiation medium for control was prepared by diluting DMSO to 2×10^5-fold with the differentiation medium to be a final concentration of 5×10^−5%.
The mouse neural stem cells were seeded on a poly-L-Lysine/Laminin-coated 96-well plate at a cell density of 2.0×10^4 cells/100 μL/well using the differentiation medium and the culture was started in a CO2 incubator (5% CO2, 37° C., wet). The next day, the medium was replaced with the differentiation medium containing a test substance or an additive-free differentiation medium for control, and evaluation of the test substance (N=5) was started (day 0). The medium was replaced every other day by 60% of the medium in the wells. On day 10, cells were fixed and immunostained.
After the medium was removed, the cells were fixed by adding 100 μL of 4% paraformaldehyde-PBS and being incubated at room temperature for 30 minutes. Next, the cells were washed 3 times with PBS, 100 μL of 5% Goat Serum/PBS was added thereto, and the mixture was incubated at room temperature for 30 minutes to perform blocking and membrane permeation treatment. […] After the cells were washed 3 times with PBS, 100 μL of PBS was added to the wells, and the wells were photographed with fluorescence microscopy. Images were taken under the same condition in all wells, and blue fluorescence and green fluorescence were simultaneously photographed.
Using the hybrid cell counting software provided in the fluorescence microscope (Keyence, BZ-X700), co-localized spots of green fluorescence and blue fluorescence were extracted, and the number of these spots was defined as the total number of GalC-positive cells, and the oligodendrocyte differentiation ratio was calculated by the following calculation:the total number of GalC-positive cells/the number of nuclei (number of blue fluorescence spots). A significant difference test was performed by t-test between the additive-free group and the sample-added group.

[7] = Evaluation of calcium increasing action in normal mice (serum calcium); assay type: in vivo, mouse; conditions: for Serum calcium concentration: repeated oral once a day, 2 weeks, C57BL/6J mice; for Calcium concentration Fluctuation range: vs vehicle 8.9 mg/dL
Experimental: After acclimatizing C57BL/6J mice (7 weeks old, male) for 1 week, the mice were divided into groups of 5 mice based on the body weight, and administration of the compound or vehicle was started. The administration solution used was a compound (in ethanol) or ethanol diluted 100-fold with 0.1% Trion X-100 (SIGMA #X100-100ML)/saline, and the repeated oral administration at once a day was performed. After administration of 2 weeks, euthanasia was performed by collecting all blood under general anesthesia.

[8] = 1 mg/kg, 1 mg/kg single oral dose, read-out: Concentration in brain/in blood ratio at brain Cmax
[9] = 0.2 mg/kg, 0.2 mg/kg single oral dose, read-out: Concentration ratio in brain/in blood at brain Cmax

Compound	Concentration in blood (mean ± SD) at brain Cmax ([2]; 1 mg/kg single oral dose) [nM]	Concentration in brain (mean ± SD) at brain Cmax ([2]; 1 mg/kg single oral dose) [pmol/g]	Kp [2, 8]	EC50 [4] [nM]	activation at 1 µM [5] [%]	Serum calcium concentration ([7]; 20 μg/kg) [mg/dL]	Calcium concentration Fluctuation range ([7]; 20 μg/kg) [mg/dL]	Serum calcium concentration ([7]; 60 μg/kg) [mg/dL]	Calcium concentration Fluctuation range ([7]; 60 μg/kg) [mg/dL]	Serum calcium concentration ([7]; 200 μg/kg) [mg/dL]	Calcium concentration Fluctuation range ([7]; 200 μg/kg) [mg/dL]	Concentration in blood at brain Cmax ([2]; 0.2 mg/kg single oral dose) [nM]	Concentration in brain at brain Cmax ([2]; 0.2 mg/kg single oral dose) [pmol/g]	Kp [2, 9]	also measured
C[C@H](CN1CC[C@@H](C(C)(F)F)C1)[C@H]1CC[C@H]2/C(=C/C=C3C[C@@H](O)C[C@H](O)C3)CCC[C@]12C [Compound B034, (1R,3R)-5-(2-((1R,3aS,7aR,E)-1-((S)-1-((R)-3-(1,1-difluoroethyl)pyrrolidin-1-yl)propan-2-yl)-7a-methyloctahydro-4H-inden-4-ylidene)ethylidene)cyclohexane-1,3-diol]	251 ± 9	562 ± 50	2.24												Mean (number of MBP-positive cells/number of Hoechst33342-positive cells) ([1]; Test 1): 0.57; Ratio (%): area of LFB staining positive/area of corpus callosum, mean ([3]; 6 μg/kg oral once a day): 88.1%
C[C@H](CN1CC[C@@H](CC(F)F)C1)[C@H]1CC[C@H]2/C(=C/C=C3C[C@@H](O)C[C@H](O)C3)CCC[C@]12C [Compound B043, (1R,3R)-5-(2-((1R,3aS,7aR,E)-1-((S)-1-((S)-3-(2,2-difluoroethyl)pyrrolidin-1-yl)propan-2-yl)-7a-methyloctahydro-4H-inden-4-ylidene)ethylidene)cyclohexane-1,3-diol]	74 ± 1	80 ± 9	1.08	10 to 100											Ratio (%): area of LFB staining positive/area of corpus callosum, mean ([3]; 2 μg/kg oral once a day): 84.9%
C[C@H](CCCN1CCOCC1)[C@H]1CC[C@H]2/C(=C/C=C3C[C@@H](O)C[C@H](O)C3)CCC[C@]12C [Compound D044, (1R,3R)-5-(2-((1R,3aS,7aR,E)-7a-methyl-1-((R)-5-morpholinopentan-2-yl)octahydro-4H-inden-4-ylidene)ethylidene)cyclohexane-1,3-diol]				1 to 10	≥ 20										Gal/C positive ratio Average value ([6]; 10 nM): 9.10; Gal/C positive ratio Average value ([6]; 100 nM): 8.22; Gal/C positive ratio Average value ([6]; 1000 nM): 12.37
C[C@H](CN1CCOC[C@@H]1C)[C@H]1CC[C@H]2/C(=C/C=C3C[C@@H](O)C[C@H](O)C3)CCC[C@]12C [Compound G004, (1R,3R)-5-(2-((1R,3aS,7aR,E)-7a-methyl-1-((S)-1-((S)-3-methylmorpholino)propan-2-yl)octahydro-4H-inden-4-ylidene)ethylidene)cyclohexane-1,3-diol]						8.9	0	8.8	-0.1	9.0	0.1	72.2 ± 10.4	171.2 ± 37.4	2.35	Mean (number of MBP-positive cells/number of Hoechst33342-positive cells) ([1]; Test 3): 0.27
C[C@H](CN1CCOCC1(C)C)[C@H]1CC[C@H]2/C(=C/C=C3C[C@@H](O)C[C@H](O)C3)CCC[C@]12C [Compound G006, (1R,3R)-5-(2-((1R,3aS,7aR,E)-1-((S)-1-(3,3-dimethylmorpholino)propan-2-yl)-7a-methyloctahydro-4H-inden-4-ylidene)ethylidene)cyclohexane-1,3-diol]						8.9	0	8.9	0	8.6	-0.3	58.9 ± 0.5	137.8 ± 11.5	2.38	Mean (number of MBP-positive cells/number of Hoechst33342-positive cells) ([1]; Test 4): 0.50
O=C1CCCN1c1ccc(Oc2ccc3c(c2)CCN(C2CCC2)CC3)nc1 [GSK239512, reference compound]					18										enhancement in the MBP gene expression compared with the wells added with DMSO ([5]; 1 μM): 1.8 times; Ratio (%): area of LFB staining positive/area of corpus callosum, mean ([3]; 10 mg/kg oral once a day): 45.8%
